Tests used:
[1] = xn = mol fraction of the nth substance listed; conditions: 100 kPa, Liquid; for viscosity: Capillary tube (Ostwald / Ubbelohde) method; for mass density: Vibrating tube method
[2] = refractive index (Na D-line) (dimensionless); xn = mol fraction of the nth substance listed; conditions: 100 kPa, Liquid, Standard Abbe refractometry

C1CC[C@H]2CCCC[C@H]2C1 [cis-decahydronaphthalene] + CCCCCCCCCC
Conditions | mass density, [1] [kg/m3] | refractive index, [2] | viscosity, [1] [mPa·s]
293.15 K, x1 = 0.1006 | 744.89 | – | 1.006
293.15 K, x1 = 0.2055 | 759.79 | – | 1.09
293.15 K, x1 = 0.3009 | 773.95 | – | 1.197
293.15 K, x1 = 0.3965 | 788.64 | – | 1.366
293.15 K, x1 = 0.508 | 806.55 | – | 1.481
293.15 K, x1 = 0.6026 | 822.35 | – | 1.669
293.15 K, x1 = 0.7012 | 839.6 | – | 1.954
293.15 K, x1 = 0.7763 | 853.24 | – | 2.163
293.15 K, x1 = 0.8985 | 876.48 | – | 2.647
293.15 K, x1 = 1 | 896.85 | – | 3.355
298.15 K, x1 = 0.1006 | 741.18 | 1.415 | 0.933
298.15 K, x1 = 0.2055 | 756.08 | 1.421 | 1.015
298.15 K, x1 = 0.3009 | 770.21 | 1.427 | 1.107
298.15 K, x1 = 0.3965 | 784.9 | 1.4326 | 1.26
298.15 K, x1 = 0.508 | 802.83 | 1.4403 | 1.361
298.15 K, x1 = 0.6026 | 818.62 | 1.4464 | 1.53
298.15 K, x1 = 0.7012 | 835.86 | 1.4539 | 1.781
298.15 K, x1 = 0.7763 | 849.49 | 1.4594 | 1.964
298.15 K, x1 = 0.8985 | 872.71 | 1.4688 | 2.39
298.15 K, x1 = 1 | 893.06 | 1.4776 | 3.011
303.15 K, x1 = 0.1006 | 737.4 | – | 0.868
303.15 K, x1 = 0.2055 | 752.31 | – | 0.939
303.15 K, x1 = 0.3009 | 766.45 | – | 1.022
303.15 K, x1 = 0.3965 | 781.15 | – | 1.162
303.15 K, x1 = 0.508 | 799.07 | – | 1.255
303.15 K, x1 = 0.6026 | 814.86 | – | 1.406
303.15 K, x1 = 0.7012 | 832.1 | – | 1.633
303.15 K, x1 = 0.7763 | 845.72 | – | 1.792
303.15 K, x1 = 0.8985 | 868.93 | – | 2.168
303.15 K, x1 = 1 | 889.26 | – | 2.718
308.15 K, x1 = 0.1006 | 733.61 | 1.4109 | 0.812
308.15 K, x1 = 0.2055 | 748.53 | 1.4167 | 0.876
308.15 K, x1 = 0.3009 | 762.68 | 1.4227 | 0.95
308.15 K, x1 = 0.3965 | 777.38 | 1.4284 | 1.076
308.15 K, x1 = 0.508 | 795.31 | 1.4358 | 1.162
308.15 K, x1 = 0.6026 | 811.1 | 1.4422 | 1.298
308.15 K, x1 = 0.7012 | 828.33 | 1.4496 | 1.503
308.15 K, x1 = 0.7763 | 841.96 | 1.455 | 1.644
308.15 K, x1 = 0.8985 | 865.15 | 1.4647 | 1.979
308.15 K, x1 = 1 | 885.46 | 1.4736 | 2.47
313.15 K, x1 = 0.1006 | 729.8 | – | 0.76
313.15 K, x1 = 0.2055 | 744.74 | – | 0.82
313.15 K, x1 = 0.3009 | 758.9 | – | 0.887
313.15 K, x1 = 0.3965 | 773.6 | – | 0.996
313.15 K, x1 = 0.508 | 791.54 | – | 1.079
313.15 K, x1 = 0.6026 | 807.33 | – | 1.204
313.15 K, x1 = 0.7012 | 824.56 | – | 1.389
313.15 K, x1 = 0.7763 | 838.18 | – | 1.517
313.15 K, x1 = 0.8985 | 861.37 | – | 1.811
313.15 K, x1 = 1 | 881.65 | – | 2.252
318.15 K, x1 = 0.1006 | 725.99 | 1.4065 | 0.715
318.15 K, x1 = 0.2055 | 740.94 | 1.4127 | 0.771
318.15 K, x1 = 0.3009 | 755.1 | 1.4188 | 0.832
318.15 K, x1 = 0.3965 | 769.81 | 1.4251 | 0.924
318.15 K, x1 = 0.508 | 787.76 | 1.4319 | 1.007
318.15 K, x1 = 0.6026 | 803.55 | 1.4384 | 1.12
318.15 K, x1 = 0.7012 | 820.78 | 1.4456 | 1.286
318.15 K, x1 = 0.7763 | 834.4 | 1.4515 | 1.401
318.15 K, x1 = 0.8985 | 857.58 | 1.4611 | 1.666
318.15 K, x1 = 1 | 877.85 | 1.4696 | 2.063
323.15 K, x1 = 0.1006 | 722.16 | – | 0.674
323.15 K, x1 = 0.2055 | 737.12 | – | 0.725
323.15 K, x1 = 0.3009 | 751.29 | – | 0.781
323.15 K, x1 = 0.3965 | 766.01 | – | 0.859
323.15 K, x1 = 0.508 | 783.96 | – | 0.941
323.15 K, x1 = 0.6026 | 799.76 | – | 1.045
323.15 K, x1 = 0.7012 | 816.99 | – | 1.193
323.15 K, x1 = 0.7763 | 830.61 | – | 1.299
323.15 K, x1 = 0.8985 | 853.78 | – | 1.539
323.15 K, x1 = 1 | 874.05 | – | 1.898

Reference: the NIST ThermoML archive (doi:10.1021/je400250u)
